# ChEMBL document CHEMBL1133568 (J Med Chem, 2000)
# The source made the active and inactive calls. The rule behind the calls is not given here.
# Tests used:
# [1] = target: T1, Androgen receptor (Rattus norvegicus) (UniProt P15207); assay: Relative binding affinity against androgen (AR) receptor of rat after 24 hr incubation as percent binding compared to R1881
# T1 sequence (whole entry): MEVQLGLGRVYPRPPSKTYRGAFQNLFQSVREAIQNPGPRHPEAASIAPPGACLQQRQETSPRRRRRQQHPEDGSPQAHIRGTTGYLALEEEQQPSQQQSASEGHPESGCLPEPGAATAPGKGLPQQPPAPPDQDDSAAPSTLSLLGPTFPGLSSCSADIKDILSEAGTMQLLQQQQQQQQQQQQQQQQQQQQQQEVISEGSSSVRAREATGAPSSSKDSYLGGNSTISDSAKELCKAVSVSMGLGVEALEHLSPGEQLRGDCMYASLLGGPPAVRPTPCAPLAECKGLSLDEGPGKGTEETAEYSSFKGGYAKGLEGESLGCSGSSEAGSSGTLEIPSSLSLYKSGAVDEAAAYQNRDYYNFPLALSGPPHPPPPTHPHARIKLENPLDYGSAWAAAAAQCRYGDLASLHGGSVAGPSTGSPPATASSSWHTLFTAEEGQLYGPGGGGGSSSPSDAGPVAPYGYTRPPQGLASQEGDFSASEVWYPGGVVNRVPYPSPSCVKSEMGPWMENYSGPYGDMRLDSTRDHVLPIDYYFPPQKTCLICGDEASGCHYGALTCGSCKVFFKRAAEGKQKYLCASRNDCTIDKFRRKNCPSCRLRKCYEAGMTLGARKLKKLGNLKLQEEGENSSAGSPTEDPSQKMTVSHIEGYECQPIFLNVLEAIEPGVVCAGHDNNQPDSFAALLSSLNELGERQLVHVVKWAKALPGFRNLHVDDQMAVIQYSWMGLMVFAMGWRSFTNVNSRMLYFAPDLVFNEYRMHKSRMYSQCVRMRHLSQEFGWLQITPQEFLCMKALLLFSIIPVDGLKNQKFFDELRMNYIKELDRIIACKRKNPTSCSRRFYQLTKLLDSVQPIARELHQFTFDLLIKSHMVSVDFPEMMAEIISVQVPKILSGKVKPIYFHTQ
# [2] = target: T2, Progesterone receptor (Rattus norvegicus) (UniProt Q63449); assay: Full abortifacient effect at 0.1 mg/animal/day in pregnant rats; type: functional
# T2 sequence (whole entry): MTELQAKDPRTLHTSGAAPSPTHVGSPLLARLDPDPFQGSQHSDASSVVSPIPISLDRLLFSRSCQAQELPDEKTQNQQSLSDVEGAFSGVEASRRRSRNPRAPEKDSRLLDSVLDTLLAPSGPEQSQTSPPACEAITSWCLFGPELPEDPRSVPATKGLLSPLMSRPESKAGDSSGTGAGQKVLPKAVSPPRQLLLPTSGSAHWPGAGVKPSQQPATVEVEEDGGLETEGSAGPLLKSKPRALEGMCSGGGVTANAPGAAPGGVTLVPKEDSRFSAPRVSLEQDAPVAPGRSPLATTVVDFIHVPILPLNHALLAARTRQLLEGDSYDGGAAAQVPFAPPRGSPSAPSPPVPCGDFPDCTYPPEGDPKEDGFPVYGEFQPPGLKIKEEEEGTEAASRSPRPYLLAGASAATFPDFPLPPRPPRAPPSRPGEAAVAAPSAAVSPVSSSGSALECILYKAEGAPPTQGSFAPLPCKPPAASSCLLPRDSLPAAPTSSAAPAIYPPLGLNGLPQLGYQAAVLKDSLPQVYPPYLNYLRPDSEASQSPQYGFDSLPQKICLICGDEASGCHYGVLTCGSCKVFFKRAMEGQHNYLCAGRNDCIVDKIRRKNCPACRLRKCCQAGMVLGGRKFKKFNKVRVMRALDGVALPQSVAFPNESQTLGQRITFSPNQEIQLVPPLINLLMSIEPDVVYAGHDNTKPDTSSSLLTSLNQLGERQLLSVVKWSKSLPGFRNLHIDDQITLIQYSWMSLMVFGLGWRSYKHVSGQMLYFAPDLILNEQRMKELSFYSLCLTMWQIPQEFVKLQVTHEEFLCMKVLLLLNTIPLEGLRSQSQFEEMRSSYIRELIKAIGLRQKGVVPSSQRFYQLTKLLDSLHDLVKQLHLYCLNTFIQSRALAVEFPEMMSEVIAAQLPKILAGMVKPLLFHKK
# [3] = target: T2, Progesterone receptor (Rattus norvegicus); assay: Incomplete abortifacient effect at 0.03 mg/animal/day in pregnant rats; type: functional
# [4] = target: T2, Progesterone receptor (Rattus norvegicus); assay: Full abortifacient effect at 0.03 mg/animal/day in pregnant rats; type: functional
# [5] = species on record: Oryctolagus cuniculus; assay: Relative binding affinity against rabbit progesterone (PR) receptor after 24 hr incubation as perent binding compared to progesterone
# [6] = target: T3, Progesterone receptor (Homo sapiens, UniProt P06401); assay: In vitro antagonist potency in transactivation assay in neuroblastoma cells expressing human PR-A progesterone receptor; type: functional, cell-based
# T3 sequence (P06401 whole entry): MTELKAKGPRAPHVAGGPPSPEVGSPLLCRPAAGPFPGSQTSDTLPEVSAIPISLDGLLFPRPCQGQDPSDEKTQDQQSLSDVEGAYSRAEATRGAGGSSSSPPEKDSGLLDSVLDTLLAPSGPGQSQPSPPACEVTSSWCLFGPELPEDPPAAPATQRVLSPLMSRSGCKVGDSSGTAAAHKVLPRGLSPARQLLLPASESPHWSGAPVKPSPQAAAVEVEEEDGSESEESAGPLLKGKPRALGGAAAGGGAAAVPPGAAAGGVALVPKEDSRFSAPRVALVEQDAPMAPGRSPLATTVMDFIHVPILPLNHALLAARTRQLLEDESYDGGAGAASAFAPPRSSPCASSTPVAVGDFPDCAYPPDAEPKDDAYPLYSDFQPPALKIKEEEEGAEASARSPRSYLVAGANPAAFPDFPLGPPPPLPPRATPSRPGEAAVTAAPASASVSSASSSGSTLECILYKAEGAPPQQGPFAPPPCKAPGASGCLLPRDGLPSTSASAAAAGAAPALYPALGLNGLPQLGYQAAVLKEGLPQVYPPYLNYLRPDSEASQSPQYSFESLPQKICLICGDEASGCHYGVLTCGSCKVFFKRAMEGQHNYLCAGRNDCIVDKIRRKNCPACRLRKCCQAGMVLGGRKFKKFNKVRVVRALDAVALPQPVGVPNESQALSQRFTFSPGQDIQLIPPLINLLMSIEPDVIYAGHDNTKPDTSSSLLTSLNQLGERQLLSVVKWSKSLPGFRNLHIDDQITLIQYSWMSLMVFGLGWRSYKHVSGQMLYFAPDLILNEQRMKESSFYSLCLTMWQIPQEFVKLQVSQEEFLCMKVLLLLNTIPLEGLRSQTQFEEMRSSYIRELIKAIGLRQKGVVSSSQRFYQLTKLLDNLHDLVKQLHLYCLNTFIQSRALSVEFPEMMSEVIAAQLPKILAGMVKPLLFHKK
# [7] = target: T2, Progesterone receptor (Rattus norvegicus); assay: Full abortifacient effect at 0.3 mg/animal/day in pregnant rats; type: functional
# [8] = target: T4, Glucocorticoid receptor (Rattus norvegicus) (UniProt P06536)
# T4 sequence (whole entry): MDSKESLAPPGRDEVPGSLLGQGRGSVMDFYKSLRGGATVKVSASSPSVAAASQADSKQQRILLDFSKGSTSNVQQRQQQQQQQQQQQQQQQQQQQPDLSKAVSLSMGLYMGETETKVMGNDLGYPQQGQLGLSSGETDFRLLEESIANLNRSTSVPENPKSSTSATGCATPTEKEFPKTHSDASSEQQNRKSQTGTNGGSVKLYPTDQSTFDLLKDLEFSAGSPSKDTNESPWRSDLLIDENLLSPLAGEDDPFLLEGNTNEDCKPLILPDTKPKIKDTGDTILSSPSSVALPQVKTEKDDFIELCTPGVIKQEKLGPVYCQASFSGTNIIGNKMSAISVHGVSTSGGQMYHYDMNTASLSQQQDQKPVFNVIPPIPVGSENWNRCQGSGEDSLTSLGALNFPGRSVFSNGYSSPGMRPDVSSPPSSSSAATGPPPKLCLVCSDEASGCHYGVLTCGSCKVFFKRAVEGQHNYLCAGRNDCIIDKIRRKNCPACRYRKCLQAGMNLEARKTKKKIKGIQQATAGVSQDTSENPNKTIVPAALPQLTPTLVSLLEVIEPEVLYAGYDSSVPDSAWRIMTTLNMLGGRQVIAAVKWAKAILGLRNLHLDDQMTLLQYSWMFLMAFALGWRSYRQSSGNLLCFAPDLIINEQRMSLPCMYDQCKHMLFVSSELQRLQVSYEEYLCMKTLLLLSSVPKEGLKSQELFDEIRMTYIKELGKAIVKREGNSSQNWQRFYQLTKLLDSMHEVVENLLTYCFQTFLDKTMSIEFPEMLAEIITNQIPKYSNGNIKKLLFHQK
# Description: Antiglucocorticoid activity in adrenalectomized young male rats after oral administration
# [9] = target: T3, Progesterone receptor; assay: In vitro antagonist potency in transactivation assay in neuroblastoma cells expressing human PR-B progesterone receptor; type: functional, cell-based
# [10] = target: T2, Progesterone receptor (Rattus norvegicus); assay: Incomplete abortifacient effect at 0.3 mg/animal/day in pregnant rats; type: functional
# [11] = target: T2, Progesterone receptor (Rattus norvegicus); assay: Incomplete abortifacient effect at 0.1 mg/animal/day in pregnant rats; type: functional
# [12] = target: T4, Glucocorticoid receptor (Rattus norvegicus); assay: Relative binding affinity against Glucocorticoid receptor of rat after 2 hr incubation as percent binding compared to Dexamethasone
# [13] = target: T5, Glucocorticoid receptor (Mus musculus, UniProt P06537); assay: In vitro antagonist potency in transactivation assay in NIH3T3 cells expressing glucocorticoid receptor; type: functional, cell-based
# T5 sequence (P06537 whole entry): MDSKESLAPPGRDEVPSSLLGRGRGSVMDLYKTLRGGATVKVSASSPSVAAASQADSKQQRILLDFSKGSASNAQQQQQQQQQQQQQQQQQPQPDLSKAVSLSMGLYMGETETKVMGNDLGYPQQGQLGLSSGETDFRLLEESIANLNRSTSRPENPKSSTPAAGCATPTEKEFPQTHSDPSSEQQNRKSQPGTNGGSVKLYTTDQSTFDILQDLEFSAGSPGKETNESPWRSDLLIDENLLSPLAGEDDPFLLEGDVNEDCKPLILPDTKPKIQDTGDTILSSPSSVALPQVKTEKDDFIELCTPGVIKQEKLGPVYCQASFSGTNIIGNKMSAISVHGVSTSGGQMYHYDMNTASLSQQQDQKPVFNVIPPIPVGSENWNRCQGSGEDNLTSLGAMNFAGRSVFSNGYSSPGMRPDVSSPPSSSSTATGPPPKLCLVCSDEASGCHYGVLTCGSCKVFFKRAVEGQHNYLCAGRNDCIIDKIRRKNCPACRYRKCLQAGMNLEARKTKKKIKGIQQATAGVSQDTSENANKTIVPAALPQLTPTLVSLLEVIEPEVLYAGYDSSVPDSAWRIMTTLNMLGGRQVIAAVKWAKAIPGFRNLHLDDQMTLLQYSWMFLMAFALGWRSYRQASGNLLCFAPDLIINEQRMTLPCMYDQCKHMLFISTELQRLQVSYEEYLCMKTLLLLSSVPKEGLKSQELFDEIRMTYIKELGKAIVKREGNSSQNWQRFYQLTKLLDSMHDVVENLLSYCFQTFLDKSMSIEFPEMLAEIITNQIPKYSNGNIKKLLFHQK
# [14] = target: T6, Androgen receptor (Homo sapiens, UniProt P10275); assay: In vitro antagonist potency in transactivation assay in CV-1 cells expressing androgen receptor; type: functional, cell-based
# T6 sequence (P10275 whole entry): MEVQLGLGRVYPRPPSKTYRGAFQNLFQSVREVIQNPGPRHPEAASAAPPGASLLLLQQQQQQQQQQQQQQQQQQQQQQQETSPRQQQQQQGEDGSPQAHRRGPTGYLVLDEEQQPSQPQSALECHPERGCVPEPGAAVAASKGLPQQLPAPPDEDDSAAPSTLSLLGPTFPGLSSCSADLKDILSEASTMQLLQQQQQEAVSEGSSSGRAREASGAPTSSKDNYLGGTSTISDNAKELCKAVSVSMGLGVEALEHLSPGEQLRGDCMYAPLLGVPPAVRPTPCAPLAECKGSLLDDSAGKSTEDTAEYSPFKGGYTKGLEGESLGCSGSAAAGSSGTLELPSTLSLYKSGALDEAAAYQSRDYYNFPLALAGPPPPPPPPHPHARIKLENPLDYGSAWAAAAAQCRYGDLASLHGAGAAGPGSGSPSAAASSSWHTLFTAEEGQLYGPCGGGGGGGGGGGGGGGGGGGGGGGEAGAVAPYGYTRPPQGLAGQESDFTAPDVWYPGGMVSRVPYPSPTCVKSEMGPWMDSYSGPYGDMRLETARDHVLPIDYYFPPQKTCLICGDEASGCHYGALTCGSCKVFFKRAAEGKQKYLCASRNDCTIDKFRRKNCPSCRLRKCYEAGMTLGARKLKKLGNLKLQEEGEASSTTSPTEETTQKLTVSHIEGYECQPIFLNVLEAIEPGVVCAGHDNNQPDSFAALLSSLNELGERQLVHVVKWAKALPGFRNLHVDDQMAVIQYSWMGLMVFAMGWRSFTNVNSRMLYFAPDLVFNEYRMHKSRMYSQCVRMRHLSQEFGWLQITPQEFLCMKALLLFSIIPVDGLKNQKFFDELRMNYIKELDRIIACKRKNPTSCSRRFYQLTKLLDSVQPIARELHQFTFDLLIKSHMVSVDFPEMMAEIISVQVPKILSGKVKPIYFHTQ
# [15] = target: T1, Androgen receptor (Rattus norvegicus)
# Description: Antiandrogenic activity in orchidectomized young male rats after oral administration
# [16] = target: T7, Progesterone receptor (Homo sapiens) (UniProt P06401)
# T7 sequence (whole entry): T3 sequence (P06401 whole entry)
# [17] = target: T8, Glucocorticoid receptor (Mus musculus) (UniProt P06537); conditions: NIH3T3
# T8 sequence (whole entry): T5 sequence (P06537 whole entry)
# Description: In vitro agonist potency in transactivation assay in NIH3T3 cells expressing glucocorticoid receptor; NE=no effect
# [18] = target: T7, Progesterone receptor (Homo sapiens); remark: listed apart in the source
# Description: In vitro agonist potency in transactivation assay of neuroblastoma cells expressing human PR-B progesterone receptor; NE=no effect
RBA [1] [%],Abortion [2] [%],Abortion [3] [%],Abortion [4] [%],RBA [5] [%],IC50 [6] [nM],Abortion [7] [%],ED50 mg/animal/day [8],IC50 [9] [nM],Abortion [10] [%],Abortion [11] [%],RBA [12] [%],IC50 [13] [nM],IC50 [14] [nM],ED50 mg/animal/day [15],NE [16],NE [17],NE [18],SMILES
3.1,83,0,0,140,0.0036,100,2,0.0025,0,17,22.2,16,54,1.3,–,–,–,CC(=O)c1ccc([C@H]2C[C@@]3(C)[C@@H](CC[C@@]3(O)C(F)(F)C(F)(F)F)[C@@H]3CCC4=CC(=O)CCC4=C32)cc1 [LONAPRISAN]
–,–,–,–,–,–,–,–,–,–,–,–,2.2,–,–,inactive,inactive,inactive,CC#C[C@]1(O)CC[C@H]2[C@@H]3CCC4=CC(=O)CCC4=C3[C@@H](c3ccc(N(C)C)cc3)C[C@@]21C [MIFEPRISTONE]
